Common to all, as to assay: DTP human tumour cell line panel, 48 h
The test system of assay [1] is 786-0 renal.
Assay [2] concerns DU-145 prostate.
The test system of assay [3] is HOP-92 NSCLC.
For assay [4], the system named is NCI-H226 lung.
Assay [5] deals with NCI-H23 lung.
Assay [6] concerns NCI-H460 lung.
The subject of assay [7] is NCI-H522 lung.
The subject of assay [8] is OVCAR-3 ovarian.
Assay [9] concerns SF-539 CNS.
In assay [10] the test system is SW-620 colon.

Each structure is given as a SMILES string.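 All cell lines were grown in 96-well plates and treated with compound for 48 hours. Here, GI50 denotes the concentration required for 50% inhibition of growth. At the TGI there is no net growth.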 Where only a bound is given, the exact number is not on record here.

One may read the TGI as the concentration at which net growth stops. Turning to `COC(C)C(O)(C(=O)OCC1=CCN2CCC(O)C12)C(C)(C)O` (stereo not drawn), the concentration for total growth inhibition (TGI) in [1], in assay [2], in assay [3], in [4], in [5] and in assay [6] was more than 100 µM in each case. The TGI in [7], in assay [8], in [9] and in [10] was more than 100 µM in each case.
The GI50 is the concentration giving 50% growth inhibition. For `O=C(Nc1cccc(C(F)(F)F)c1)Oc1ccc(Cl)c2cccnc12`, the GI50 in [1] is 5.09 µM; in assay [2], 2.38 µM; in assay [3], 0.462 µM; in assay [4], 2.25 µM; in assay [5] it was 1.48 µM; in assay [6] it was 1.01 µM. For the same compound, the GI50 is 0.906 µM in assay [7], 0.832 µM in assay [8], 1.85 µM in [9] and 1.49 µM in assay [10]. The TGI in assay [1] is 15.4 µM; in assay [2], 15.8 µM; in [3] it was 4.02 µM; in assay [4], 5.75 µM; in assay [5], 11.7 µM; in [6] it was 5.08 µM. Further, the TGI worked out at 4.28 µM in assay [7], 6.93 µM in [8], 7.92 µM in [9] and 12.9 µM in [10].
`C[C@@H]1CC[C@@]2(NC1)O[C@H]1C[C@H]3[C@@H]4CC[C@H]5C[C@@H](O)CC[C@]5(C)[C@H]4CC[C@]3(C)[C@H]1[C@@H]2C`: the concentration for total growth inhibition (TGI) in assay [1], in assay [2], in assay [3], in assay [4], in [5] and in assay [6] was more than 100 µM each time. Further, the TGI in assay [7] is more than 100 µM; in assay [8], more than 100 µM; in assay [9] it was 77.6 µM; in assay [10] it was more than 100 µM.
Regarding `CCn1c2ccccc2c2cc(C(=O)c3ccc(C)c4ccccc34)ccc21`, the concentration for 50% growth inhibition (GI50) in assay [1] is 0.426 µM; in assay [2], 0.435 µM; in assay [3], 0.28 µM; in assay [4], 1.91 µM; in assay [6], 0.356 µM; in [8], 0.308 µM. Besides, the GI50 is 0.255 µM in [9] and 0.352 µM in assay [10]. Besides, the TGI in assay [1] was more than 100 µM; in assay [2] it was more than 100 µM; in assay [3], 6.87 µM; in [4], more than 100 µM; in assay [6] it was more than 100 µM; in assay [8], 0.938 µM. Also, the figures for the TGI in assay [9] and in assay [10] were 0.802 µM and more than 100 µM, respectively.
With `CN(N)c1nc(N)c(C#N)c(C#N)c1C#N`, the concentration for total growth inhibition (TGI) in assay [1], in assay [2], in [3], in assay [5], in assay [7] and in [8] was more than 10 µM in each case. Besides, the total growth inhibition concentration (TGI) in assay [9] and in assay [10] was more than 10 µM each time.
Regarding `CCN(Cc1c(F)cccc1Cl)c1ccc(CO)c(Cl)c1`, the GI50 in assay [1] was 14.9 µM; in [2], 11.8 µM; in [3] it was 0.116 µM; in assay [5] it was 13.9 µM; in [6] it was less than 0.0249 µM; in assay [7], 13.8 µM. For the same compound, the GI50 in assay [8] was less than 0.034 µM; in assay [9] it was 15.5 µM; in assay [10], 0.175 µM. Moreover, the concentration for total growth inhibition (TGI) was 30.1 µM in assay [1]; 24.9 µM in [2]; 0.933 µM in assay [3]; 33.8 µM in [5]; 11.2 µM in assay [6]; 28.5 µM in [7]. Further, the TGI amounted to 0.297 µM in [8], 29.8 µM in assay [9] and 20 µM in [10].
Turning to `CCOC(=O)C1=C(C)NC(c2ccco2)=C(C#N)C1c1cccc([N+](=O)[O-])c1` (stereo not drawn), the GI50 in [1] was 0.0104 µM; in [2], 0.0316 µM; in assay [4], 0.0137 µM; in assay [5] it was 0.0251 µM; in [6], 0.0633 µM; in assay [8] it was 0.0147 µM. Also, in assay [10], the GI50 was 0.0101 µM. Also, the total growth inhibition concentration (TGI) in assay [1] is 13.5 µM; in assay [2] it was 4.02 µM; in assay [4] it was 3.43 µM; in assay [5], 0.0947 µM; in assay [6] it was 0.432 µM; in assay [7], 0.0371 µM. In addition, the TGI amounted to 0.0373 µM in [8], 0.0128 µM in assay [9] and 1.73 µM in [10].
In the case of `CC(C)(C)OC(=O)N[C@@H](Cc1ccccc1)C(=O)N(Cc1ccccc1)C1(C(=O)NCc2ccccc2)CCN(Cc2ccccc2)CC1`, the GI50 in assay [1] is 2.99 µM; in assay [2], 5.38 µM; in [3], 1.45 µM; in assay [4], 3.2 µM; in assay [5], 5.67 µM; in [6] it was 3 µM. Besides, the GI50 in assay [7] was 4.02 µM; in assay [8], 3.95 µM; in assay [10], 3.49 µM. Besides, the TGI in assay [1] was 43.3 µM; in [2], more than 100 µM; in [3], 5.33 µM; in assay [4], more than 100 µM; in [5] it was more than 100 µM; in assay [6], 87.6 µM. For the same compound, the TGI in assay [7], in assay [8] and in assay [10] was more than 100 µM throughout.
Turning to `NC(Cc1ccccc1)c1nccs1` (stereo not drawn), the TGI in [1], in [2], in assay [3], in assay [4], in assay [5] and in assay [7] was more than 100 µM in each case. Also, the TGI in assay [8], in [9] and in assay [10] was more than 100 µM each time.
As for `COc1cc2c3c(n(CCCNCCCN)c(=O)c2cc1OC)-c1cc2c(cc1C3=O)OCO2`, the GI50 in [1] is 2.83 µM; in assay [2], 3.08 µM; in [3] it was 1.36 µM; in assay [4], 2.21 µM; in [5], more than 100 µM; in [6] it was 4.07 µM. For the same compound, the GI50 in assay [8] was 3.08 µM; in assay [9], 1.17 µM; in [10], 3.29 µM. Moreover, the TGI in assay [1] is 14.2 µM; in assay [2], 13.4 µM; in assay [3], 11.2 µM; in [4], 8.45 µM; in assay [5], more than 100 µM; in assay [6] it was 18 µM. The results for the TGI in [8], in [9] and in assay [10] were 11.7 µM, 10.6 µM and 16.4 µM, respectively.

These data come from PubChem BioAssay (NCI).
